Test results: ChEMBL document CHEMBL1145712, “Two new lignans with activity against influenza virus from the medicinal plant Rhinacanthus nasutus” (J Nat Prod, 1997)
≈ marks a conversion by molar mass, not a printed value.

How the values were obtained:
Human alphaherpesvirus 2 = assay: Antiviral activity against HSV2 MS in african green monkey Vero cells by viral cytopathic effect assay; format: functional, organism-based; conditions: Human alphaherpesvirus 2, MS
[1] = Selectivity index, ratio of IC50 for african green monkey Vero cells to EC50 for HSV2 MS
Vero = assay: Cytotoxicity against african green monkey Vero cells by MTT assay; format: cell-based; conditions: Chlorocebus sabaeus
Influenza A virus [2] = assay: Antiviral activity against influenza A virus NJH1N1 in MDCK cells by hemadsorption-inhibition assay; format: functional, organism-based
MDCK = assay: Cytotoxicity against MDCK cells by neutral red assay; format: cell-based; conditions: Canis lupus familiaris
[3] = Selectivity index, ratio of IC50 for MDCK cells to EC50 for influenza A virus NJH1N1; format: toxicity, cell-based; conditions: dog, read-out: Ratio IC50/EC50
[4] = Selectivity index, ratio of IC50 for MDCK cells to EC50 for influenza A virus NWS33; format: toxicity, cell-based; conditions: dog, read-out: Ratio IC50/EC50
Influenza A virus [5] = assay: Antiviral activity against influenza A virus NWS33 in MDCK cells assessed as inhibition of viral cytopathic effect by neutral red assay; format: functional, organism-based

SMILES | EC50 (Human alphaherpesvirus 2) [µg/mL] | Ratio IC50/EC50 [1] | IC50 (Vero) [µg/mL] | EC50 (Influenza A virus [2]) [µg/mL] | IC50 (MDCK) [µg/mL] | selectivity ratio [3] | selectivity ratio [4] | EC50 (Influenza A virus [5]) [µg/mL]
Nc1nc2c(ncn2COCCO)c(=O)[nH]1 [ACYCLOVIR] | 1.5 (≈ 6.66 µM) | >60 | > 100 | – | – | – | – | –
NC12CC3CC(CC(C3)C1)C2 [AMANTADINE] | – | – | – | 0.054 (≈ 0.357 µM) | 56 (≈ 370 µM) | 1000 | – | –
COC(=O)/C(=C/c1ccc2c(c1)OCO2)C(Cc1cc(OC)c2c(c1)OCO2)C(=O)OC (stereo unspecified) [RHINACANTHIN E] | – | – | 17 (≈ 38.4 µM) | 1.7 (≈ 3.84 µM) | 44 (≈ 99.5 µM) | 26 | 15 | 7.4 (≈ 16.7 µM)
NC(=O)c1ncn([C@@H]2O[C@H](CO)[C@@H](O)[C@H]2O)n1 [RIBAVIRIN] | – | – | – | – | > 200 | – | > 59 | 3.7 (≈ 15.2 µM)
COC(=O)C(Cc1ccc2c(c1)OCO2)C(Cc1cc(OC)c2c(c1)OCO2)C(=O)OC (stereo unspecified) [RHINACANTHIN F] | – | – | 4.4 (≈ 9.9 µM) | < 0.94 | 17 (≈ 38.3 µM) | > 18 | 6.8 | 3.1 (≈ 6.98 µM)
